Earlier results on 5 compounds are cited in patent publication US20100137843A1, “Delivery devices for modulating inflammation” (Searete LLC, a limited liability corporation of the State …, priority 2008, published 2010).

The conditions of series [1]: single agent, 400 mg infused over one hour.
The next series relates to Src family kinase. The conditions noted are these: also its dependent cellular responses.
A further series relates to proteasome. Particulars: cultured breast cancer cells; copper-bound.
For the next series, the system named is aldehyde dehydrogenase. The conditions noted are these: without toxicity.
A further series has as its target Toll-like receptor 4 (Homo sapiens, UniProt O00206).
The subject of the next series is Epha1. Particulars: at nanomolar concentrations.

Sequence of Toll-like receptor 4 (O00206 24-839, species assumed): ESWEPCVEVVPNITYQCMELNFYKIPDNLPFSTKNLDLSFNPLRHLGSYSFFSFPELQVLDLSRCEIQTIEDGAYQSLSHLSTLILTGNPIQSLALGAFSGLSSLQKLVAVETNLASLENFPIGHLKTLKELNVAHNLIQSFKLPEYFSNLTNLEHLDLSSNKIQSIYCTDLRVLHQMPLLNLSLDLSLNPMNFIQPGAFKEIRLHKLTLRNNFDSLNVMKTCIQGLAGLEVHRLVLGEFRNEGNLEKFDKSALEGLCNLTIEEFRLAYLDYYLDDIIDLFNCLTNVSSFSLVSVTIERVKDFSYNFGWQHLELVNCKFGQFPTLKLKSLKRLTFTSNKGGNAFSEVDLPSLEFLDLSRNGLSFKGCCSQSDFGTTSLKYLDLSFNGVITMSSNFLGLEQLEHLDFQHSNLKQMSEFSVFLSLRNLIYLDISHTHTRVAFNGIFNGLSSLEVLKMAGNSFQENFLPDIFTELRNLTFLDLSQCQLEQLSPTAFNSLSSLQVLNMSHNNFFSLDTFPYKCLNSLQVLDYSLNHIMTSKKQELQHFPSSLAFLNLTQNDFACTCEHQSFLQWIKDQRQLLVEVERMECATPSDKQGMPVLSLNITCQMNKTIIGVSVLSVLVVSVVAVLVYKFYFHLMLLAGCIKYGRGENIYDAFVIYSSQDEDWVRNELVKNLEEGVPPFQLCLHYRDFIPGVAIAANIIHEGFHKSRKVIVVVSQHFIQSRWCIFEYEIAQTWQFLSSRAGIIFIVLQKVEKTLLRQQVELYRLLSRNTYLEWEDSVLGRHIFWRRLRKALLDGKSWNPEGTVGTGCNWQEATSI

Consider `CCN(CC)CCCC(C)Nc1ccnc2cc(Cl)ccc12.O=P(O)(O)O.O=P(O)(O)O` (stereo not drawn) [Chloroquine phosphate, 7-chloro-4-[[4-(diethylamino)-1-methylbutyl]amino]quinoline phosphate (1:2)], for which, in series [1], the “tolerability of intravenous infusion” value was “without complication”.
Regarding `CCN(CC)CCCC(C)Nc1ccnc2cc(Cl)ccc12` (stereo not drawn) [Chloroquine], in the series on Src family kinase, the “inhibition of CpG-induced Src family kinase activation” value is “does not inhibit”.
Take `CCN(CC)C(=S)SSC(=S)N(CC)CC` [Disulfiram, 1-(diethylthiocarbamoyldisulfanyl)-N,N-diethyl-methanethioamide]: the proteasomal activity result in the series with proteasome is listed as “inhibits proteasomal activity”. Besides, in the series on aldehyde dehydrogenase, the “inhibition of aldehyde dehydrogenase” value was “inhibits”.
Consider `Cl.Cl.Nc1ccccc1Oc1ccc2c(N)nsc2c1` [Example M62812, 3-amino-6-(2-aminophenoxy)-1,2-benzisothiazole dihydrochloride], for which the “inhibition of Toll-like receptor 4” value at Toll-like receptor 4 is recorded as “inhibitor”.
For the compound `Cc1nc(Nc2ncc(C(=O)Nc3c(C)cccc3Cl)s2)cc(N2CCN(CCO)CC2)n1.O` [dasatinib, N-(2-chloro-6-methylphenyl)-2-[[6-[4-(2-hydroxyethyl)-1-piperazinyl]-2-methyl-4-pyrimidinyl]amino]-5-thiazolecarboxamide, monohydrate], the “inhibition of Epha1” value in the series on Epha1 was “inhibits”.
